Experimental findings from patent US5212167A, “Modulation of receptor-mediated ion transport” (Trustees of Boston University, priority 1991, dated 1993) are described below.

For orientation: EC50 means the concentration giving half of the maximal effect.

Where a name gives a salt, the structure may show the parent alone.

The subject of one data set is glycine receptor. Nature of the data set: Whole-cell patch clamp, glycine-induced currents in cultured chick spinal cord neurons. The format is cell-based. Conditions: for inhibition of the glycine response: 50 μM glycine, n=6. Here is the method:
(§1) Cultures of dissociated spinal cord neurons were prepared from 7-day chick embryos as described by Wu et al. (Mol. Pharmacol. 37:597-602 (1990)). Briefly, dissociated cells were plated on collagen-coated 35-mm tissue culture dishes in Eagle's minimum essential medium supplemented with 2.4 mM glutamine, 10% (v/v) heat-inactivated horse serum, 5% (v/v) chick embryo extract, 100 units/ml penicillin, and 100 μg/ml streptomycin. Cultures were maintained in a humidified atmosphere of 5% CO2 /95% air at 37° C. Cytosine arabinoside (1 μM) was added after 36 hours to control the proliferation of non-neuronal cells. This medium was removed one day later and replaced with a similar medium supplemented with 20.5 mM glucose and 18 mM KCl, and containing 2.5% chick embryo extract. Fresh medium was added twice weekly. Cultured neurons were used in experiments 2-4 weeks after plating.
(§2) Electrophysiological experiments were carried out in 35-mm tissue culture dishes on the stage of an inverted phase-contrast microscope. Whole-cell currents were recorded by the whole-cell variant of the patch clamp technique described by Hamill et al. (Pflugers Arch. 391:85-100 (1981)). Patch electrodes were fabricated with a double pull from thin-wall borosilicate glass microcapillary pipets (Fischer) on a David Kopf vertical pipet puller (Model 700D). Electrode resistance was 5.2±0.12 M.OMEGA. (n=65) when filled with intracellular solution. The electrode solution usually contained (in mM): 10 KCl, 3 sodium gluconate, 140 potassium gluconate, 11 EGTA and 10 HEPES (pH adjusted to 7.2 with KOH). For GABA experiments, a high Cl-intracellular solution (in mM, 140 KCl, 3 NaCl, 1 MgCl2, 11 EGTA and 10 HEPES, pH adjusted to 7.2 with KOH) was used. The bath solution contained (in mM): 150 NaCl, 4 KCl, 1 CaCl2, […] 10 HEPES (pH adjusted to 7.2 with NaOH). Since NMDA-induced currents are subject to voltage-dependent block by extracellular Mg^2+, no magnesium salts were added to the bath solution. […]
(§3) Recordings were made using a Yale MK V amplifier. […] Series resistance, which initially measured 7.3± 0.14 M.OMEGA. […]

The subject of data set [1] is non-NMDA glutamate receptor. Nature of the data set: Whole-cell patch clamp, kainate- or AMPA-induced currents in cultured chick spinal cord neurons. The class given is cell-based. The procedure: as §1, §2, §3
(In patch-clamp work, channel activity is measured electrically.)

A further data set has as its system GABA receptor. The experiment in a line: Whole-cell patch clamp, GABA-induced currents in cultured chick spinal cord neurons. The format is cell-based. Here is the method: as §1
Electrophysiological experiments were carried out in 35-mm tissue culture dishes on the stage of an inverted phase-contrast microscope. Whole-cell currents were recorded by the whole-cell variant of the patch clamp technique described by Hamill et al. (Pflugers Arch. 391:85-100 (1981)). […]
as §3

A further data set relates to NMDA receptor. Nature of the data set: Whole-cell patch clamp, NMDA-induced currents in cultured chick spinal cord neurons. The settings on record: for enhancement of the NMDA response (percent change): 100 μM pregnenolone sulfate. Here is the method:
as §1
Electrophysiological experiments were carried out in 35-mm tissue culture dishes on the stage of an inverted phase-contrast microscope. Whole-cell currents were recorded by the whole-cell variant of the patch clamp technique described by Hamill et al. (Pflugers Arch. 391:85-100 (1981)). Patch electrodes were fabricated with a double pull from thin-wall borosilicate glass microcapillary pipets (Fischer) on a David Kopf vertical pipet puller (Model 700D). Electrode resistance was 5.2±0.12 M.OMEGA. (n=65) when filled with intracellular solution. The electrode solution usually contained (in mM): 10 KCl, 3 sodium gluconate, 140 potassium gluconate, 11 EGTA and 10 HEPES (pH adjusted to 7.2 with KOH). For GABA experiments, a high Cl-intracellular solution (in mM, 140 KCl, 3 NaCl, 1 MgCl2, 11 EGTA and 10 HEPES, pH adjusted to 7.2 with KOH) was used. The bath solution contained (in mM): 150 NaCl, 4 KCl, 1 CaCl2, 1 MgCl2 and 10 HEPES (pH adjusted to 7.2 with NaOH). Since NMDA-induced currents are subject to voltage-dependent block by extracellular Mg^2+, no magnesium salts were added to the bath solution. All experiments were performed at room temperature (23°-25° C.).
Recordings were made using a Yale MK V amplifier. After forming a tight seal (typically 1-10 G.OMEGA.) capacitative transients were minimized. The patch of membrane under the pipet tip was then ruptured by gentle suction to obtain the whole-cell configuration. Cells with series resistance greater than 10 M.OMEGA. were rejected. Series resistance, which initially measured 7.3± 0.14 M.OMEGA. (n=65), was compensated (>60%). Only cells with resting membrane potential more negative than -55 mV and input resistance in excess of 150 M.OMEGA. were used. All recordings were made with the cell membrane potential clamped at -70 mV. Currents were filtered at 1 kHz using an 8-pole Bessel filter and digitized (40 ms/point) using an on-line data acquisition system (pClamp, Axon Instruments).
Drug solutions were applied to single neurons by pressure ejection (15 psi) from 7-barrel pipets (Choi et al., J. Neurophysiol 45:605-620 (1981) and Chan, C. Y. and D. H. Farb, J. Neurosci. 5:2365-2373 (1985)). Pipets were pulled from Omega dot tubing to a tip diameter of about 1 μm per barrel and broken back to about 3-5 μm per barrel after filling. Seven-barrel pressure pipets were positioned approximately 50μm from the neuronal soma. Under these conditions, the drug solution in the pressure pipet rapidly and effectively replaces the solution surrounding the target neuron, with less than 10% dilution (Choi and Fischbach, J. Neurophysiol. 45:605-620 (1981)).
All drugs were obtained from Sigma, with the exception of AMPA hydrobromide (Research Biochemicals) and pregnenolone sodium sulfate (Steraloids). Stock solutions of steroids were prepared in dimethyl sulfoxide (final concentration, 0.5%, v/v).

With `CC(=O)C1CCC2C3CC=C4CC(OS(=O)(=O)O)CCC4(C)C3CCC12C` (centres unmarked) [pregnenolone sulfate], the results for the “inhibition of the glycine response” value in the data set on glycine receptor (5 μM pregnenolone sulfate) and with glycine receptor (100 μM pregnenolone sulfate) were 61±2% and 91±2%, respectively. For the same compound, the “effect on glycine receptor-mediated ion channel activity (in words)” value in the data set on glycine receptor (summary statement) is given as “slight decrease”. For the same compound, the “effect on response elicited by AMPA” value in data set [1] (AMPA-induced current) was “slightly inhibited”. In addition, the “effect on response elicited by kainate” value in data set [1] (kainate-induced current) is reported as “slightly inhibited”. The “effect on non-NMDA glutamate-induced activity (in words)” value in data set [1] (summary statement) is on record as “inhibited”. For the same compound, the EC50 in the data set on GABA receptor (FIG. 2 dose response, read-out: EC50 for inhibition of the GABA response) was determined as 7 µM; in the data set on NMDA receptor (read-out: EC50 for enhancement of the NMDA response, FIG. 2 dose response) it was 57 µM. Further, the “effect on GABA receptor-mediated ion channel activity (in words)” value in the data set on GABA receptor (summary statement) is recorded as “slight decrease”. For the same compound, the “potentiation of the NMDA response in the presence of maximal glycine versus without added glycine” value in the data set with NMDA receptor (10 μM glycine present) is on record as “did not differ significantly”. The “increase of response to NMDA” value in the data set with NMDA receptor (30 μM NMDA, 100 μM steroid, -70 mV) is “approximately threefold”. Also, the “enhancement of the NMDA response (percent change)” value in the data set with NMDA receptor (100 μM NMDA, n=4, mean ±SEM) is on record as 86±7.5%; in the data set with NMDA receptor (1 mM NMDA, n=2, mean ±SEM), 1.3±1.3%. Besides, the “increase in the ionic current across the cellular membrane” value with NMDA receptor (appropriate concentration (summary statement)) is reported as 3 fold.
`NCC(=O)O` [glycine, reference compound]: the “potentiation of the NMDA response by glycine in the presence of pregnenolone sulfate” value in the data set on NMDA receptor (10 μM glycine, 100 μM pregnenolone sulfate present) is recorded as “still evident”.
Consider `C[C@]12CCC(=O)C=C1CC[C@@H]1[C@@H]2[C@@H](O)C[C@@]2(C)[C@H]1CC[C@]2(O)C(=O)CO` [Hydrocortisone, reference compound], for which, in the data set with NMDA receptor (100 μM steroid), the “enhancement of NMDA-induced current (in words)” value was “failed to enhance”. For the same compound, the “inhibition of the NMDA response” value with NMDA receptor (100 μM steroid, n=6, mean ±SEM) turned out to be 15±2.4%.
